In patent US11673853B2, “Small molecule AMPK activators” (University of Pittsburgh—Of the Commonwealth System of …, priority 2016, dated 2023):

Experiments:
C57BL6 mice = assay: LPS-induced sepsis model; type: in vivo; settings: i.p., LPS (E. coli) 3 mg/kg i.p. after 10 min, blood at 2 h
Method: FIG. 5. C57BL6 mice were administered i.p. vehicle, 0.04, 0.2, 1 or 5 mg/kg of Compound 12. After 10 min, mice were given LPS (E. coli, 3 mg/kg) through an i.p. injection and, after 2 h, mice were euthanized and blood was collected for IL1-β, IL-6 and TNFα measurements. Shown in panels (D)-(F) is % inhibition of cytokine levels as a function of drug dose. The data represent n=3 mice/group at each dose. Protein (A), cell counts (B), bacterial count (C), and presence of AMPK and pAMPK (G) were also determined.
(§1) FIG. 11. (A-B.) C57BL6 mice were administered i.p. vehicle, 0.08, 0.4, 2 or 10 mg/kg of Compound 23. After 10 min, mice were given LPS (E. coli, 3 mg/kg) through an i.p. injection and, after 2 h, mice were euthanized and blood collected for IL-6 and TNFα measurements. Shown in panels (A-B.) are the cytokine levels as a function of drug dose. The data represent n=3 mice/group at each dose. (C-G) Compound 23 (2 or 10 mg/kg) was administered to mice though an i.p. injection, and mice were immediately challenged with LPS (E. coli, 3 mg/kg, i.t.) or without (control, CON) for an additional 18 h. Mice were then euthanized and lungs were lavaged with saline, harvested, and then homogenized. Lavage protein (C), cell counts (D) and cytokine secretions (E-G) were measured. The data are representative of data from n=5 mice/group, *P<0.05 versus vehicle.
In a sepsis model, Compound 12 was administered to mice at various doses through an i.p. injection, and, after 10 min, the mice were given LPS (E. coli; 3 mg/kg i.p.). Two hours later, the mice were euthanized, and blood was collected and assayed for IL-1β, IL-6 and TNFα cytokine levels.
(§2) Compound 23 was tested in a sepsis model. Compound 23 was administered to mice at various doses through an i.p. injection, and 10 min later, mice were given LPS (E. coli; 3 mg/kg i.p.). After 2 h, mice were euthanized and blood was collected and assayed for IL-6 and TNFα cytokine levels. […] Finally, Compound 23 was tested in a pneumonia model using LPS endotoxin. […] Thus Compound 23 protects the lung against LPS induced lung injury.

PBMC cells = assay: LPS-induced cytokine release from PBMCs (ELISA); type: cell-based
Method: FIG. 4. (A) Beas2b cells were cultured in DMEM 2% media with glucose for 24 h before switching to glucose-free media. Cells were then exposed to Compound 12 in a dose dependent manner for 18 h before being collected for immunoblotting. (B) Beas2b cells were cultured in DMEM 2% media with glucose for 24 h before Compound 12 treatment in a dose dependent manner. After 18 h, cells were then collected for immunoblotting. (C) Beas2b cells were cultured in DMEM 2% media with glucose for 24 h before switching to glucose-free media. Cells were then exposed to Compound 12 for 18 h before being collected for mRNA analysis. (D) 50K PBMC cells were cultured in 96 well plates before being exposed to Compound 12 for 4 h. Cells were then treated with LPS (10 ng/ml) for additional 2 h. Media were then collected and IL-1b concentration was determined by ELISA.
FIG. 10. (A) 50K PBMC cells were cultured in 96 well plates before being exposed to Compound 23 for 18 h. Cells were then treated with LPS (10 ng/ml) for additional 4 h. Media were then collected and TNF and IL-1b concentration were determined by ELISA. (B) PBMC cells (1 mL at 1.0×10^6/ml) were treated with Compound 23 (5 μM) for 18 h. Cells were then treated with 100 ng/ml LPS for 4 h. Cytokine release was monitored by the human cytokine array (R&D systems). The results from a cytokine array dot blot were quantitated and graphed.
A SAR study was performed by constructing analogs of Compound 1. […] Compound 12 was further tested in PBMCs. Briefly, PBMCs were treated with Compound 12 at various concentrations for 4 h before exposure to LPS (10 ng/ml) for 2 h.
Compound 23 was tested in in vitro inflammatory assays. 50K PBMC cells were cultured in 96 well plates before being exposed to Compound 23 for 18 h. Cells were then treated with LPS (10 ng/ml) for additional 4 h. Media were then collected and assayed for TNF and IL-1b. […] Cytokine arrays were used to profile which cyotokine/chemokines were regulated by Compound 23.

mice = assay: LPS pneumonia model; type: in vivo; settings: 2 or 10 mg/kg i.p., LPS 3 mg/kg i.t., 18 h
Method: FIG. 8. Compound 12 (2 or 10 mg/kg) was administered to mice though an i.p. injection, and mice were immediately challenged with LPS (E. coli, 3 mg/kg, i.t.) or without (control, CON) for an additional 18 h. Mice were then euthanized and lungs were lavaged with saline, harvested, and then homogenized. Lavage protein (H), cell counts (I) and cytokine secretions (E-G) were measured. Lungs were homogenized before being assayed by immunoblotting. The data are representative of data from n=5-6 mice/group, *P<0.05 versus vehicle. Serum cytokines (A-C) and peritoneal bacteria (D) were also measured.
as §1
Compound 12 was tested in two pneumonia model using Pseudomonas or LPS endotoxin.
as §2

[1] = compound 18 h, then LPS 10 ng/ml 4 h

SMILES: OC(COc1ccc(F)cc1)CN(Cc1ccccc1)Cc1ccccc1 (stereo not drawn) [Compound 12]
- ID50 IL-1β (C57BL6 mice): 0.1 mg/kg
- ID50 IL-6 (C57BL6 mice): 0.4 mg/kg
- ID50 TNF-α (C57BL6 mice): 0.4 mg/kg
- LPS induced IL-1 release from PBMCs (PBMC cells; compound 4 h, then LPS 10 ng/ml 2 h): potently inhibit
- lavage cell counts (mice): significantly decreased
- lavage cytokine release (mice): significantly decreased
- lavage protein concentration (mice): significantly decreased
- pAMPK levels within the lung tissue (mice; immunoblotting): effectively increased

SMILES: OC(COc1ccc(C(F)(F)F)cc1)CN(Cc1ccccc1)Cc1ccccc1 (stereo not drawn) [Compound 23]
- ID50 IL-6 (C57BL6 mice): 0.4 mg/kg
- ID50 TNF-α (C57BL6 mice): 0.4 mg/kg
- IL-1b in media (PBMC cells; [1]): dose dependently decreased
- TNF in media (PBMC cells; [1]): dose dependently decreased
- lavage cell counts (mice): substantially decreased
- lavage cytokine release (mice): effectively reduces
- lavage protein concentration (mice): substantially decreased
